Legend:
INS-1 cells [1] = experiment: Insulin secretion in INS-1 cells; format: cell-based, rat; settings: 20 μM
Method: The effects of LSF analogs on insulin secretion in INS-1 cells with and without inflammatory cytokines. β-Cells were treated with apoptosis detecting dye for 2-3 hours at room temperature. Apoptotic cells were recognized with purple-red color under a microscope. After washing to eliminate free dye and adding dye release reagent, color density was quantified by reading at OD 450 nm. At the end of treatment, cells were washed with Krebs-Ringer-bicarbonate-HEPES buffer (KRB) containing 134 mm NaCl, 4.7 mm KCl, 1.2 mm KH2PO4, 1.2 mm MgSO4, 1.0 mm CaCl2, 10 mm HEPES, and 0.1% BSA at 37° C., pH 7.4. The cells were preincubated in the same buffer for 30 min, followed by 60-min incubation in KRB supplemented with 15 mM D-glucose (J. T. Baker, Phillipsburg, N.J.). The supernatant was harvested and subjected to centrifugation to eliminate residue cells. Insulin secreted into the supernatant was measured by RIA with mouse insulin as a standard. The cells are maintained in basal (3 mM) and glucose-stimulated (28 mM). […] Insulin secretion in INS-1 cells: (a) LSF, (b) compound CPW11, and (c) compound CPW12. […]

[2] = system: non-obese diabetic (NOD) mouse; settings: cited from earlier work
β-cells = settings: maintains insulin secretory capability and cell viability; cited from earlier work
INS-1 cells [3] = experiment: Protection of INS-1 cells from cytokine-induced cell death; format: cell-based, rat
Method: The effects of LSF analogs on β-cells in the […] insulin-secreting INS-1 cell line were investigated. Cells were maintained in RPMI 1640 medium (Life Technologies, Inc., Gaithersburg, Md.) supplemented with 10% heat-inactivated FBS, 10 mm HEPES, 200 μm L-glutamine, 1 mm sodium pyruvate, […] 2-mercaptoethanol, 50 U/ml penicillin, and 50 μg/ml streptomycin at pH 7.4. The cells were cultured at 37° C. in a humidified incubator supplied with 5% carbon dioxide. Fresh medium was replaced every 2 days. The cells were plated at a density of […]. Culture vessels were coated with poly-D-lysine and gelatin (Sigma, St. Louis, Mo.) to retain detached and dead cells so that seeding cell numbers reflect the actual cell numbers after all treatment conditions. INS-1 cells were treated with the combination of recombinant mouse IL-1β (5 ng/ml), IFNγ (100 ng/ml), and TNFα (10 ng/ml; R&D Systems, Inc., Minneapolis, Minn.) suspended in complete RPMI medium. LSF (provided by Cell Therapeutics, Inc., Seattle, Wash.) and analogs were added simultaneously with the cytokines in complete RPMI medium. All treatments were performed for 18 hours.
INS-1 cells were treated with a combination of recombinant IL-1β, INFγ, and TNFα with 10^−5-10^3 μM LSF and its analogs. […] There was no further increase in β-cell protection when the LSF concentration was increased from 10^−2 to 10^2 μM. […] No further increases in β-cell protection were observed when analog concentrations were increased.
The effects of LSF analogs on insulin secretion in INS-1 cells with and without inflammatory cytokines. β-Cells were treated with apoptosis detecting dye for 2-3 hours at room temperature. Apoptotic cells were recognized with purple-red color under a microscope. After washing to eliminate free dye and adding dye release reagent, color density was quantified by reading at OD 450 nm. […] Insulin secreted into the supernatant was measured by RIA with mouse insulin as a standard. […]

[4] = cited from earlier work
rCYP 2C19 = rCYP 2C19 (Homo sapiens, UniProt P33261); experiment: rCYP450 inhibition, 2C19; format: in vitro ADME; parameters: concentration or dose not given beside the values
Sequence of rCYP 2C19 (P33261 whole entry): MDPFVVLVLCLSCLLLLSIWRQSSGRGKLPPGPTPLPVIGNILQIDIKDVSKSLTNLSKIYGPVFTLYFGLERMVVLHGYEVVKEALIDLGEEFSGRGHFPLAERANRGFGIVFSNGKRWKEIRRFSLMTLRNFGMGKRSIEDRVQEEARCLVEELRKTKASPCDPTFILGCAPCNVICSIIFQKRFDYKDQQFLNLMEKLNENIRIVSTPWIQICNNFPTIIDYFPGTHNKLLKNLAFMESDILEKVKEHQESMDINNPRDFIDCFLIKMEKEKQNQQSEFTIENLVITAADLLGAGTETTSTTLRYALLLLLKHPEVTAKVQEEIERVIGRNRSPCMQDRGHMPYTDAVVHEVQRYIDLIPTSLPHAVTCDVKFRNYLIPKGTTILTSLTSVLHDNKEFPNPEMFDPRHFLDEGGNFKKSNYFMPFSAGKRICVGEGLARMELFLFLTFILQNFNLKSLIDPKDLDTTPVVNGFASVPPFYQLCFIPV
Method: (§1) Further evaluations were performed for some of the LSF analogs in MDS assays, solubility, oral bioavailability, and stability (see Table 1). Analogs having greater than 50% inhibitory activity were considered to have high activity; analogs having from 20-49% inhibitory activity were considered to have medium activity; and analogs having less than 20 inhibitory activity were considered to have low activity

Metabolic stability = format: in vitro ADME
Method: (§2) Further evaluations were performed for some of the LSF analogs in MDS assays, solubility, oral bioavailability, and stability (see Table 1).

rCYP 2C9 = rCYP 2C9 (Homo sapiens, UniProt P11712); experiment: rCYP450 inhibition, 2C9; format: in vitro ADME; parameters: concentration or dose not given beside the values
Sequence of rCYP 2C9 (P11712 whole entry): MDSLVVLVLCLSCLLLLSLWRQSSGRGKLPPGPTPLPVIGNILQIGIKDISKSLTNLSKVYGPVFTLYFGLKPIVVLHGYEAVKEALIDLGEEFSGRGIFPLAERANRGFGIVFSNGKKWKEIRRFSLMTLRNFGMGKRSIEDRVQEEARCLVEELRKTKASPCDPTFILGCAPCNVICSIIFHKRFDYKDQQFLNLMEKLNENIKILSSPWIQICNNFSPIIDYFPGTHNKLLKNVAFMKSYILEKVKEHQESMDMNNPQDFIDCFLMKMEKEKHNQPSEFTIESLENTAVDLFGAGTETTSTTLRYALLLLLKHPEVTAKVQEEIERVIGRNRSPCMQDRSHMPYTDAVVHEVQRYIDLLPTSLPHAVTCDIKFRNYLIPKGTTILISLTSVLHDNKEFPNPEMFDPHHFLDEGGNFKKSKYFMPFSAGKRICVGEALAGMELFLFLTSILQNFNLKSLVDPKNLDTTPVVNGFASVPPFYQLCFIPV
Method: as §1

rCYP 1A2 = biological target: T1, rCYP 1A2 (Homo sapiens, UniProt P05177); experiment: rCYP450 inhibition, 1A2; format: in vitro ADME; parameters: concentration or dose not given beside the values
T1 sequence (P05177 1-516): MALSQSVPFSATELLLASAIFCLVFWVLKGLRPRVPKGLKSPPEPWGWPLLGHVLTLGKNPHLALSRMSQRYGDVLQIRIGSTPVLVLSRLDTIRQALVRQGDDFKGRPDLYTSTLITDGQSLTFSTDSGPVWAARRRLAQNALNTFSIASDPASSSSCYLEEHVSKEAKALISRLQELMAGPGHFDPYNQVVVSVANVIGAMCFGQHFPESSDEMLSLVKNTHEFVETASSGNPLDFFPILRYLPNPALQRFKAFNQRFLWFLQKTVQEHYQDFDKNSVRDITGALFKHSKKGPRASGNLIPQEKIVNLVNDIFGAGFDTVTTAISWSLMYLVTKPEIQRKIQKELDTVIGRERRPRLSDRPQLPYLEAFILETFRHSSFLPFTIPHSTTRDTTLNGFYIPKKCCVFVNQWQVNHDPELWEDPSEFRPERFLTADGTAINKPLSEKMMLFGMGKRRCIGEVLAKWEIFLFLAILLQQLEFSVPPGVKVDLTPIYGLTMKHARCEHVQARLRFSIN
Method: as §1

rCYP 2D6 = rCYP 2D6 (Homo sapiens, UniProt P10635); experiment: rCYP450 inhibition, 2D6; format: in vitro ADME; parameters: concentration or dose not given beside the values
Sequence of rCYP 2D6 (P10635 whole entry): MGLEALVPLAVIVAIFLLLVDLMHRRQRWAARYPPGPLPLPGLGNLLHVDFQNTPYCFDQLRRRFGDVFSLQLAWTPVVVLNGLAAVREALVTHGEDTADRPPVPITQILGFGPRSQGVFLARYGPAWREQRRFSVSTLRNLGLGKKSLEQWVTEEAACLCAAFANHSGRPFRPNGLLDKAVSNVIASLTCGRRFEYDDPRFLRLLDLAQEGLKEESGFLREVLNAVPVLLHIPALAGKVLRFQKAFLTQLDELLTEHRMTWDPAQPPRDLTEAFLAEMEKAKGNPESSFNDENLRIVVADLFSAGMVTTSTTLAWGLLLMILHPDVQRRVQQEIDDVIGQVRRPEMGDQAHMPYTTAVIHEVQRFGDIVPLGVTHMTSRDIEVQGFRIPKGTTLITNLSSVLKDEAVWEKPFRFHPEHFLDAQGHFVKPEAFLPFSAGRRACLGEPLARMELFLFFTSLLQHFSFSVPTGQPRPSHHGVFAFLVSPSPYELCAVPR
Method: as §1

rCYP 3A4 = rCYP 3A4 (Homo sapiens, UniProt P08684); experiment: rCYP450 inhibition, 3A4; format: in vitro ADME; parameters: concentration or dose not given beside the values
Sequence of rCYP 3A4 (P08684 whole entry): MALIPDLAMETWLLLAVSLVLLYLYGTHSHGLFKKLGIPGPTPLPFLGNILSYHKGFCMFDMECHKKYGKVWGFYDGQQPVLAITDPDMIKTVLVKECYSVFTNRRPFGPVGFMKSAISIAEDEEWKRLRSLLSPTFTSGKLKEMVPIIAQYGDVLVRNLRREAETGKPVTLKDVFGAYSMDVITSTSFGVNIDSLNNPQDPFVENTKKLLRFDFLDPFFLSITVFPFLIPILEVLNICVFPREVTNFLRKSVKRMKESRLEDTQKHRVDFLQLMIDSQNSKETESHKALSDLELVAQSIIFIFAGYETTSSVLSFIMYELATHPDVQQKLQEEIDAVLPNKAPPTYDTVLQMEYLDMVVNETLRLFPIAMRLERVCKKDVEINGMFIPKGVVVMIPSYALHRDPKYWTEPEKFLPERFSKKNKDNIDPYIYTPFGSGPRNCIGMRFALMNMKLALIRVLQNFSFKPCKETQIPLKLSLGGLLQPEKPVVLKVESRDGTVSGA
Method: as §1

human islets [5] = experiment: Intracellular ATP concentrations (mitochondrial function) in human islets; format: cell-based; settings: human β-cells
Method: (§3) Four compounds (CPW7, CPW8, CPW11, and CPW12) were also evaluated on human islets for the induction of insulin secretion, intracellular ATP concentrations and the effect of reducing cell death exposed to cytokines (combination of human IL-1β, IFN-γ, and TNF-α). The results are illustrated FIGS. 7A-7D.

human islets [6] = experiment: Insulin secretion in human islets exposed to cytokines; format: cell-based; settings: human islet, in the presence of inflammatory cytokines
Method: as §3

Solubility = format: physicochemical; settings: in words
Method: as §2

cytochrome p450 = cytochrome p450 inhibition, overall statement; format: in vitro ADME
Source text: Analogs having greater than 50% inhibitory activity were considered to have high activity; analogs having from 20-49% inhibitory activity were considered to have medium activity; and analogs having less than 20 inhibitory activity were considered to have low activity

human islets [7] = experiment: Cell death of human islets exposed to cytokines; format: cell-based; settings: human β-cells
Method: as §3

Caco-2 = Caco-2 permeability test; format: in vitro ADME
mouse-origin β-TC6 cells [8] = experiment: β-cell apoptosis protection after inflammatory cytokines, pancreatic β cell lines; format: cell-based; settings: mouse islet cell line
Method: (§4) The disclosed analogs (CPW1-15) were evaluated in pancreatic β cell lines for apoptosis protection after treatment with inflammatory cytokines (reflected by reduced OD450) and insulin-release (see FIGS. 5 and 6).
The β-TC6 cell line is maintained in RPMI 1640 medium (Life Technologies, Rockville, Md.) supplemented with 10% heat inactivated fetal bovine serum, 10 mM HEPES, […] L-glutamine, 50 units/ml penicillin and 50 μg/ml streptomycin at pH 7.4. The cells are cultured in a 37° C., humidified incubator supplied with 5% carbon dioxide. Fresh media is replaced every two days. Unless otherwise stated, the cells are plated at a density of 10^5/cm^2. Culture vessels (dishes and chamber slides) used for experiments were coated with poly-D-lysine and gelatin (Sigma, St. Louis, Mo.) to retain detached and dead cells so that seeding cell numbers reflect the actual cell numbers after all treatment conditions.
β-TC6 cells are treated with vehicle alone or with the combination of recombinant mouse IL-1β (5 ng/ml), IFN-γ (100 ng/ml) and TNF-α (10 ng/ml) (R&D Systems, Minneapolis, Minn.) suspended in complete RPMI medium. LSF (Cell Therapeutics, Inc. Seattle, Wash.) or the analogs are added simultaneously with the cytokines in complete RPMI medium in the concentrations ranging 1 nM-[…]. All treatments are conducted for 18 hours. The results are illustrated in FIGS. 5A-8P.

mouse-origin β-TC6 cells [9] = experiment: Insulin release, pancreatic β cell lines; format: cell-based; settings: mouse islet cell line
Method: as §4
At the end of treatment, cells are washed with Krebs-Ringer-bicarbonate-HEPES buffer (KR13) containing in mM: 134 NaCl, 4.7 KCl, 1.2 KH2P04, 1.2 MgS04, 1.0 CaCI2, 10 HEPES, and 0.1% bovine serum albumin at 37° C., at a pH of 7.4. The cells are pre incubated in the same buffer for 30 min followed by 60-min incubation in KRB supplemented with 15 mM D-glucose (J. T. Baker, Phillisburg, N.J.). The supernatant is harvested and subjected to centrifugation to eliminate residue cells. Insulin secreted into the supernatant is measured using EIA with mouse insulin as a standard. The results are illustrated in FIGS. 9A-9P.

rCYP % Inhibition 2C19 (rCYP 2C19) [%]	Metabolic Stability Percent Remaining (Metabolic stability) [%]	rCYP % Inhibition 2C9 (rCYP 2C9) [%]	rCYP % Inhibition 1A2 (rCYP 1A2) [%]	rCYP % Inhibition 2D6 (rCYP 2D6) [%]	rCYP % Inhibition 3A4 (rCYP 3A4) [%]	SMILES	also measured
–	–	–	–	–	–	C[C@@H](O)CCCCn1c(=O)c2c(ncn2C)n(C)c1=O [LSF, 1-(5-R-hydroxyhexyl)-3,7-dimethylxanthine]	insulin release (INS-1 cells [1]): Insulin release was observed; spontaneous Type 1 diabetes development [2]: significantly reduce; protection of β-cells from inflammatory cytokine-mediated injuries (β-cells): able to protect β-cells; concentration of maximum protective effect (INS-1 cells [3]; IL-1β + IFNγ + TNFα, 18 hours): 10^−2 μM; oral bioavailability [4]: not orally bioavailable
98	19	86	95	73	50	C[C@@H](O)CCCCN1c2ccccc2Oc2ccccc21 [CPW20]	–
14	77	3	13	16	14	CC(O)CCCCN1C(=O)C(C)N(CCCCC(C)O)C(=O)C1C (mixture of isomers) [CPW6]	–
94	0	38	56	50	32	C[C@@H](O)CCCCn1ccc2cc(Br)ccc21 [CPW4]	–
99	0	86	58	80	57	CC(=O)O[C@H](C)CCCCn1ccc2cc(Br)ccc21 [CPW1]	–
24	45	5	7	10	12	CC(=O)O[C@H](C)CCCCn1[nH]c(=O)n(-c2ccccc2)c1=O [CPW8]	–
1	106	−12	5	2	−4	C[C@@H](O)CCCCn1[nH]c(=O)n(-c2ccccc2)c1=O [CPW9]	–
89	38	92	25	−28	−159	C[C@@H](O)CCCCOc1nn(CCCC[C@@H](C)O)c(=O)c2ccccc12 [CPW13]	–
12	–	5	12	8	12	C[C@@H]([O-])CCCCN1C(=O)COc2ccccc21.[Na+] [CPW7]	–
30	75	30	18	12	4	C[C@@H](O)CCCCOc1n[nH]c(=O)c2ccccc12 [CPW12]	maintaining mitochondrial function (human islets [5]): beneficial effect; insulin secretion (human islets [6]): positive effects; solubility (Solubility): acceptable; cytochrome p450 inhibition (cytochrome p450): low (less than 20 inhibitory activity); maintaining cell viability (human islets [7]): beneficial effect; Caco-2 permeability test results (Caco-2): could be orally absorbed from the GI track; stability (Metabolic stability; in words): acceptable; β-cell protection (mouse-origin β-TC6 cells [8]): positive effects; insulin release (mouse-origin β-TC6 cells [9]): positive effects; β-cell protective activity compared with LSF (INS-1 cells [3]; concentration of 10^−2 μM): comparative activity with LSF; protective effects on β-cells (INS-1 cells [3]; cytokine-induced cell death): effective at low concentrations
